System: leukemia cells from eight other ALL patients
Test: Dasatinib cell viability (MTS assay), primary cells of other ALL subsets
Type: cell-based
Conditions: Homo sapiens, 72 h; eight other ALL samples; highest tested concentration 1000 nM; 3 days

- IC50: > 1000 nM
SMILES: Cc1nc(Nc2ncc(C(=O)Nc3c(C)cccc3Cl)s2)cc(N2CCN(CCO)CC2)n1 [dasatinib]

— patent US20130131139A1, “ROR1 AS A GENE TARGET IN ACUTE LYMPHOBLASTIC LEUKEMIA” (Oregon Health & Science University, priority 2011, published 2013)
